Results as given in patent US9956232B2, “Dialkyl-phosphinoyl-alkane (Dapa) compounds and compositions for treatment of lower gastrointestinal tract disorders” (priority 2016, dated 2018).
“And” between values parts separate entries of the source, which are not always exact repeats. Equal entries are not always repeated. Where two headings read alike, the source gives them in different places.

Columns and labels:
[1] = system: human circular smooth muscle; test: Spontaneous contractions of human colon circular smooth muscle strips in organ bath; conditions: for IC50: read-out: median inhibitory concentration (IC50)
Method: In this present study, Dapa was examined by Amato in her test system. […] As shown in the FIG. 3, DAPA-2-5, prepared as a solution dissolved in distilled water, produced a dose-dependent reduction of the amplitude of human colon smooth muscle contractions when it was added to the organic bath.
The experimental procedures were approved by the Ethics Committee, University of Palermo, Italy. Human distal colon samples were obtained after informed consent from patients without LGIT disorders. The specimens were immediately placed in preoxygenated Krebs solution and stored overnight at 4° C. Circular muscular strips (4 mm wide by 10 mm long) were cut and suspended in a four-channel organ bath and connected to an isometric force transducer (FORT 25, Ugo Basile, Biological Research Apparatus, Comerio, Va., Italy). The organ bath contained 8 mL of oxygenated Krebs solution at 37° C. Mechanical activity was analyzed using the PowerLab/400 system (Ugo Basile). A tension of 1 g was applied, and strips allowed to equilibrate until spontaneous phasic contractions were recorded. Dapa compounds were added at step concentrations of 1 to 300 μM to the organ bath, with washing in between, and the contractions recorded after 4 min when the drug effect stabilizes. The TRPM8 antagonist, 5-BT (10^−5 M), was added at least 15 min before Dapa.

[2] = system: heat-induced edema in the anesthetized rat paw; test: Heat-induced edema in the anesthetized rat paw; assay type: in vivo; conditions: 20 mg/mL, 0.3 mL per paw, 30 min before 58° C. water 1 min; relative to contralateral paw
Source text: Inflammation is defined as the reaction of vascularized living tissue to local injury [Cotran, R S. 1989. Inflammation and repair. In Robbins: Pathologic Basis of Disease, ed. S. L. Robbins, R. S. Cotran, V. Kumar, 2:39-86. Philadelphia: Saunders. 4th ed.]. The characteristic signs of inflammation are redness, swelling, heat, and pain (and loss of function). The anti-inflammatory properties of the DAPA compounds were studied in a model of heat-induced vascular leakage [Wei et al. Method of inhibiting inflammatory response. U.S. Pat. No. 4,801,612; Wei et al., Anti-inflammatory peptide agonists. Annual Review Pharmacol Toxicol. 33:9-108, 1993]. When the paws of pentobarbital-anesthetized rats (200 to 300 g body weight) are immersed in 58° C. water for 1 min, the normal paw volume of about 1.8 mL was increased by ˜88% within 30 min, the swelling being due to an increase in water content of the paw.
Test compounds were dissolved in 20% water-80% R-1,2-propanediol at 20 mg/mL. The solutions were applied to the paw skin of pentobarbital-anesthetized rats (200 to 300 g body weight) at 0.3 mL per paw, using a syringe attached to a blunt 21 gauge needle covered at its tip with a piece of polyethylene 60 tubing. After distributing the solution over the paw, the paw was tightly enclosed in a plastic finger cut from a disposable glove. The contralateral paw [control] received only the vehicle. Thirty min after application, both paws were immersed in 58° C. water for 1 min. Thirty min after immersion, both paws were cut at ankle joint with scissors and weighed.
This degree of inhibition is significant for tissue protection as the injury stimulus is of supra-maximal intensity. The DAPA-2-5 effect was apparent to the untrained observer.

[3] = system: pentobarbital-anesthetized male rats; test: Shaking frequency (wet-dog shaking) of anesthetized rats after intravenous, perioral or topical delivery; assay type: in vivo; conditions: anesthetized rat
Method: In experiments conducted here, test compounds were evaluated for “wet-dog shaking” as a model of cooling sensation. Using a standardized procedure, test compounds were compared in their ability to stimulate the shaking response by intravenous injection into a cannulated femoral vein, by perioral administration, and by topical delivery to the abdominal skin.
Each rat was given two injections with a 30 min interval. […] Shaking frequency was counted for 15 min after injection. Shaking was observed immediately after i.v. injection and at least 78% of the total shakes occurred in the first 5 min after injection. The response in the second trial was at least as robust in the first trial, showing the lack of desensitization.
Test compounds were dissolved in saline and administered by oral gavage to pentobarbital-anesthetized male albino rats at 20 mg/kg at a volume of 0.1 mL/100 g body weight [N=3 to 4 rats per compound]. Shaking was counted over a 40 min period and recorded at 10-min intervals.
For topical application of DAPA, the abdominal skin of the anesthetized rat was shaved and 20 μL of the pure DAPA was applied with a micropipette onto a ˜1 cm diameter circle of skin, enclosed with a ring of cream [Baby cream “Nevskaya kosmetika Detskyi” Nevskaya Kosmetika Inc., Saint-Petersburg 192029], as shown in FIG. 5D. The number of shakes was counted for 1 hr after application.

TRPM8 = TRPM8 (Homo sapiens, UniProt Q7Z2W7); test: TRPM8 receptor agonist assay (Fluo-8 calcium, FLIPR); assay type: cell-based; parameters: host or cells: CHO cells, stably transfected
Method: Compounds were tested on (CHO) cells stably transfected with human TRPM8 cDNAs using a Fluo-8 calcium kit and a Fluorescence Imaging Plate Reader ([…]™) instrument. […] Solutions were prepared by diluting stock solutions in a HEPES-buffered physiological saline (HBPS) solution. Test compound and control formulations were loaded in polypropylene or glass-lined 384-well plates, and placed into the FLIPR instrument (Molecular Devices Corporation, Union City, Calif., USA). Each was tested at 8 concentrations with n=4 replicates per determination. […] For […]™ assay, cells were plated in 384-well black wall, flat clear-bottom microtiter plates (Type: BD Biocoat Poly-D-Lysine Multiwell Cell Culture Plate) at approximately 30,000 cells per well. Cells were incubated at 37° C. overnight to reach a near confluent monolayer appropriate for use in a fluorescence assay. The test procedure was to remove the growth media and to add 40 μL of HBPS containing Fluo-8 for 30 minutes at 37° C. 10 μL of test compound, vehicle, or control solutions in HBPS were added to each well and read for 4 minutes. Concentration-response data were analysed via the FLIPR Control software that is supplied with the FLIPR System (MDS-AT) and fitted to a Hill equation.

TRPM8, sequence (Q7Z2W7 whole entry): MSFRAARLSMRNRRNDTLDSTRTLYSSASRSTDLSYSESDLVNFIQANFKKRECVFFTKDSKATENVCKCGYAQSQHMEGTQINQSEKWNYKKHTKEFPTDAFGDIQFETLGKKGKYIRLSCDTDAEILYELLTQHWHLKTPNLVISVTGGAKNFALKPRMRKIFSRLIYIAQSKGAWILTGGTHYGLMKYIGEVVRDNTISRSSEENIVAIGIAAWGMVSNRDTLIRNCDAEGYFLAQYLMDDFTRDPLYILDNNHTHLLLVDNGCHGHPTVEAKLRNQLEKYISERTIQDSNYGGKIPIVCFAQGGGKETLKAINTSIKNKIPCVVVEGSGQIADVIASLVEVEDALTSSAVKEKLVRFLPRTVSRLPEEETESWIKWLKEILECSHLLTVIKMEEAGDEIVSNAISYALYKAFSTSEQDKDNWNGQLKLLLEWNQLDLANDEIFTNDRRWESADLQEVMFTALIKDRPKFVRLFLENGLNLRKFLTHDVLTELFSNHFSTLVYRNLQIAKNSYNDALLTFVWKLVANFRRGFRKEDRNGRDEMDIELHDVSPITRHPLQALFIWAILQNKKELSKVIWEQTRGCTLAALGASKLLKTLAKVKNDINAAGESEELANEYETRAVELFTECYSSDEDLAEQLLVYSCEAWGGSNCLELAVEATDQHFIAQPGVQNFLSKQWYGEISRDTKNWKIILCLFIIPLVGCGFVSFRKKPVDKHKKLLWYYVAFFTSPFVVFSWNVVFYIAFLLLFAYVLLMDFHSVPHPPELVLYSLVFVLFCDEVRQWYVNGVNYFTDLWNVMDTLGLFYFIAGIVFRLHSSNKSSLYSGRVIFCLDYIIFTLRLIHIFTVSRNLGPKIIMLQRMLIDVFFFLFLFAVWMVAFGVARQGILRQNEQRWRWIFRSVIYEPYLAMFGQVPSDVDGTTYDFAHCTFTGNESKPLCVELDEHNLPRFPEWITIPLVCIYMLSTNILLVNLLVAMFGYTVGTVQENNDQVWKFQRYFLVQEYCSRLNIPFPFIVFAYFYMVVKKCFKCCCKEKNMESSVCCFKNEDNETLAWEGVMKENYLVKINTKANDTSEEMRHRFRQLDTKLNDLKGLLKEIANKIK

In the case of `CCCCCP(=O)(C(C)CC)C(C)CC` (stereo not drawn) [DAPA-2-5, 1-Di(sec-butyl) phosphinoyl-pentane], the IC50 ([1]; amplitude of spontaneous contractions, human distal colon circular muscle) is reported as 34 µM, the “effect of TRPM8 antagonist on the inhibition of contractions” value ([1]; pretreatment with 5-BT (10^−5 M)) is reported as “inhibited by pretreatment with 5-BT” and the IC50 ([1]; spontaneous contractions, human circular smooth muscle in vitro) is reported as 8 µg/mL. The “Inhibition of Heat Edema (±S.E.M.)” value [2] was 12.9% and 12.9 ± 2.5 %, the “Shaking frequency, Intravenous” value ([3]; 2 mg/kg i.v., 2nd trial, counted for 15 min) was 20 ± 2 shakes and the “Shaking frequency, Perioral” value ([3]; 20 mg/kg by oral gavage, counted for 40 min) was 4 shakes and 4 ± 1 shakes. For the same molecule, the “Shaking frequency, Topical” value ([3]; 20 μL pure compound on shaved abdominal skin, counted for 1 hr) was 0 shakes, the “×Menthol” value (TRPM8; TRPM8 relative potency as repeated in Table 4) was 2.2 and the “Relative Potency” value (TRPM8; relative to menthol = 1.0 (Table 2)) was 2.2.
